Measured values: ChEMBL document CHEMBL6096721, “Discovery of Selenium-Containing Derivatives as Potent and Orally Bioavailable GLP-1R Agonists” (J Med Chem, 2025)
Active and inactive are the calls of the source. The rule behind the calls is not given here.

Key:
[1] = molecular target: T1, Glucagon-like peptide 1 receptor (Homo sapiens, UniProt P43220); assay: Binding affinity to human GLP-1R assessed as association rate constant by SPR analysis; details: filed as agonist
[2] = molecular target: T1, Glucagon-like peptide 1 receptor; assay: Agonist activity at human GLP-1R expressed in HEK293 cells assessed as cAMP accumulation incubated for 30 mins by LANCE ultra cAMP assay; assay type: functional, cell-based
[3] = molecular target: T1, Glucagon-like peptide 1 receptor; assay: Partial agonist activity at LgBit-tagged GLP-1R (unknown origin) transfected in HEK293 cells co-transfected with Smbit-tagged beta-arrestin-1 assessed as beta-arrestin recruitment incubated for 5 mins by envision microplate reader analysis; assay type: functional, cell-based
[4] = Clearance in male ICR mouse at 2 mg/kg, iv measured after 24 hrs by LC-MS/MS analysis; assay type: ADME, organism-based; details: in vivo
[5] = MRT (0 to t) in male ICR mouse at 10 mg/kg, po measured after 24 hrs by LC-MS/MS analysis; assay type: ADME, organism-based; details: in vivo
[6] = Half-life in male ICR mouse at 10 mg/kg, po measured after 24 hrs by LC-MS/MS analysis; assay type: ADME, organism-based; details: in vivo
[7] = Oral bioavailability in male ICR mouse at 10 mg/kg measured after 24 hrs by LC-MS/MS analysis; assay type: ADME, organism-based; details: in vivo
[8] = Apparent volume of distribution in male ICR mouse at 2 mg/kg, iv measured after 24 hrs by LC-MS/MS analysis; assay type: ADME, organism-based; details: in vivo, read-out: Vz
[9] = Cmax in male ICR mouse at 10 mg/kg, po measured after 24 hrs by LC-MS/MS analysis; assay type: ADME, organism-based; details: in vivo
[10] = Tmax in male ICR mouse at 10 mg/kg, po measured after 24 hrs by LC-MS/MS analysis; assay type: ADME, organism-based; details: in vivo
[11] = Cmax in male ICR mouse at 2 mg/kg, iv measured after 24 hrs by LC-MS/MS analysis; assay type: ADME, organism-based; details: in vivo
[12] = AUC (0 to t) in male ICR mouse at 2 mg/kg, iv measured after 24 hrs by LC-MS/MS analysis; assay type: ADME, organism-based; details: in vivo
[13] = MRT (0 to t) in male ICR mouse at 2 mg/kg, iv measured after 24 hrs by LC-MS/MS analysis; assay type: ADME, organism-based; details: in vivo
[14] = AUC (0 to t) in male ICR mouse at 10 mg/kg, po measured after 24 hrs by LC-MS/MS analysis; assay type: ADME, organism-based; details: in vivo
[15] = molecular target: T1, Glucagon-like peptide 1 receptor; assay: Partial agonist activity at LgBit-tagged GLP-1R (unknown origin) transfected in HEK293 cells co-transfected with Smbit-tagged beta-arrestin-1 assessed as beta-arrestin recruitment by measuring maximal efficacy incubated for 5 mins by envision microplate reader analysis relative to control; assay type: functional, cell-based
[16] = Half-life in male ICR mouse at 2 mg/kg, iv measured after 24 hrs by LC-MS/MS analysis; assay type: ADME, organism-based; details: in vivo
[17] = molecular target: T1, Glucagon-like peptide 1 receptor; assay: Binding affinity to human GLP-1R assessed as dissociation rate constant (Kd) by SPR analysis
[18] = Toxicity in human GLP-1R knockin male mouse model assessed as effect on ALT level at 30 mg/kg, sc measured after 24 hrs; assay type: organism-based; details: in vivo
[19] = Nephrotoxicity in male BALB/c mouse assessed as decrease in creatinine level at 150 mg/kg, po administered via gavage for 14 days; assay type: toxicity, organism-based; details: in vivo, 336 h, time 14 day
[20] = Subacute toxicity in male BALB/c mouse assessed as change in kidney to body weight ratio at 150 mg/kg, po administered via gavage for 14 days; assay type: organism-based; details: in vivo, 336 h, time 14 day
[21] = Toxicity in human GLP-1R knockin male mouse model assessed as effect on liver pathology at 30 mg/kg, sc measured after 24 hrs by H and E staining based analysis; assay type: organism-based; details: in vivo
[22] = Hepatotoxicity in male BALB/c mouse assessed as effect on ALT level at 150 mg/kg, po administered via gavage for 14 days; assay type: toxicity, organism-based; details: in vivo, 336 h, time 14 day
[23] = Unbound Cmax in male ICR mouse at 10 mg/kg, po measured after 24 hrs by LC-MS/MS analysis; assay type: ADME, organism-based; details: in vivo
[24] = Subacute toxicity in male BALB/c mouse assessed as pathologic change in kidney at 150 mg/kg, po administered via gavage for 14 days by H and E staining based analysis; assay type: organism-based; details: in vivo, 336 h, time 14 day
[25] = Subacute toxicity in male BALB/c mouse assessed as change in heart to body weight ratio at 150 mg/kg, po administered via gavage for 14 days; assay type: organism-based; details: in vivo, 336 h, time 14 day
[26] = tested on: Mus musculus; assay: Appetite suppressing activity in human GLP-1R knockin male mouse model assessed as reduction in food intake at 30 mg/kg, sc measured at 12 to 24 hrs (light cycle); assay type: functional, organism-based; details: time 12-24 hrs
[27] = Toxicity in human GLP-1R knockin male mouse model assessed as effect on heart pathology at 30 mg/kg, sc measured after 24 hrs by H and E staining based analysis; assay type: organism-based; details: in vivo
[28] = Toxicity in human GLP-1R knockin male mouse model assessed as effect on AST level at 30 mg/kg, sc measured after 24 hrs; assay type: organism-based; details: in vivo
[29] = Subacute toxicity in male BALB/c mouse assessed as body weight loss at 150 mg/kg, po administered via gavage for 14 days; assay type: organism-based; details: in vivo, 336 h, time 14 day
[30] = Subacute toxicity in male BALB/c mouse assessed as change in lung to body weight ratio at 150 mg/kg, po administered via gavage for 14 days; assay type: organism-based; details: in vivo, 336 h, time 14 day
[31] = tested on: Mus musculus; assay: Antidiabetic activity in human GLP-1R knockin male mouse model assessed as reduction in blood glucose level at 2 mg/kg, IG preadministered with compound for 1 hrs followed by first dose of glucose administration for 3 hrs and measured after 270 mins of second glucose administration by oral glucose tolerance test; assay type: functional, organism-based; details: time 510.0 min
[32] = Subacute toxicity in male BALB/c mouse assessed as pathologic change in lung at 150 mg/kg, po administered via gavage for 14 days by H and E staining based analysis; assay type: organism-based; details: in vivo, 336 h, time 14 day
[33] = Protein binding in mouse plasma at 2 uM assessed as unbound fraction; assay type: ADME, cell-free
[34] = molecular target: T1, Glucagon-like peptide 1 receptor; assay: Binding affinity to human GLP-1R assessed as dissociation constant (KD) by SPR analysis
[35] = Toxicity in human GLP-1R knockin male mouse model assessed as effect on lung pathology at 30 mg/kg, sc measured after 24 hrs by H and E staining based analysis; assay type: organism-based; details: in vivo
[36] = Protein binding in mouse plasma at 2 uM; assay type: ADME, cell-free; details: read-out: PPB (converted)
[37] = Hepatotoxicity in male BALB/c mouse assessed as effect on AST level at 150 mg/kg, po administered via gavage for 14 days; assay type: toxicity, organism-based; details: in vivo, 336 h, time 14 day
[38] = tested on: Mus musculus; assay: Antidiabetic activity in human GLP-1R knockin male mouse model assessed as reduction in blood glucose level at 2 mg/kg, IG preadministered with compound for 1 hrs followed by glucose administration for 3 hrs by oral glucose tolerance test; assay type: functional, organism-based; details: time 4.0 hrs
[39] = Subacute toxicity in male BALB/c mouse assessed as pathologic change in heart at 150 mg/kg, po administered via gavage for 14 days by H and E staining based analysis; assay type: organism-based; details: in vivo, 336 h, time 14 day
[40] = Toxicity in human GLP-1R knockin male mouse model assessed as effect on BUN level at 30 mg/kg, sc measured after 24 hrs; assay type: organism-based; details: in vivo
[41] = Subacute toxicity in male BALB/c mouse assessed as change in spleen to body weight ratio at 150 mg/kg, po administered via gavage for 14 days; assay type: organism-based; details: in vivo, 336 h, time 14 day
[42] = Toxicity in human GLP-1R knockin male mouse model assessed as effect on kidney pathology at 30 mg/kg, sc measured after 24 hrs by H and E staining based analysis; assay type: organism-based; details: in vivo
[43] = Nephrotoxicity in male BALB/c mouse assessed as effect on blood urea nitrogen level at 150 mg/kg, po administered via gavage for 14 days; assay type: toxicity, organism-based; details: in vivo, 336 h, time 14 day
[44] = Toxicity in human GLP-1R knockin male mouse model assessed as effect on spleen pathology at 30 mg/kg, sc measured after 24 hrs by H and E staining based analysis; assay type: organism-based; details: in vivo
[45] = Subacute toxicity in male BALB/c mouse assessed as mortality at 150 mg/kg, po administered via gavage for 14 days; assay type: organism-based; details: in vivo, 336 h, time 14 day
[46] = tested on: Mus musculus; assay: Appetite suppressing activity in human GLP-1R knockin male mouse model assessed as reduction in food intake at 30 mg/kg, sc measured after 2.5 to 12 hrs; assay type: functional, organism-based; details: time 2.5-12 hrs
[47] = Subacute toxicity in male BALB/c mouse assessed as pathologic change in liver at 150 mg/kg, po administered via gavage for 14 days by H and E staining based analysis; assay type: organism-based; details: in vivo, 336 h, time 14 day
[48] = Toxicity in human GLP-1R knockin male mouse model assessed as effect on creatinine level at 30 mg/kg, sc measured after 24 hrs; assay type: organism-based; details: in vivo
[49] = Subacute toxicity in male BALB/c mouse assessed as pathologic change in spleen at 150 mg/kg, po administered via gavage for 14 days by H and E staining based analysis; assay type: organism-based; details: in vivo, 336 h, time 14 day
[50] = Subacute toxicity in male BALB/c mouse assessed as change in liver to body weight ratio at 150 mg/kg, po administered via gavage for 14 days; assay type: organism-based; details: in vivo, 336 h, time 14 day

T1 sequence (P43220 whole entry): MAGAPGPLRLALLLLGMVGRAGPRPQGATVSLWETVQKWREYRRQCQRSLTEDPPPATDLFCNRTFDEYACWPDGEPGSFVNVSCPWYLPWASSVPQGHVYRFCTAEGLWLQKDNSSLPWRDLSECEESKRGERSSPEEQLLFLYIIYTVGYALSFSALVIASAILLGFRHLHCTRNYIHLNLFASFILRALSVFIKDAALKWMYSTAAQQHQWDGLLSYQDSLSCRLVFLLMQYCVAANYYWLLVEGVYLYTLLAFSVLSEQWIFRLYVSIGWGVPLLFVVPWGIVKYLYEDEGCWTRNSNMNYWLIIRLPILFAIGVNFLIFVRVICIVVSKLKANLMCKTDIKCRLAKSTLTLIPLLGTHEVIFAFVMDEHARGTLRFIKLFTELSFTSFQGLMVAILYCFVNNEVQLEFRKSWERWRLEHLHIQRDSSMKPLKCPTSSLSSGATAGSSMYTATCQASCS

In the case of SEMAGLUTIDE, the Ka [1] is reported as 7.94 10^5/M.s.

`CC(C)[C@@H](NCc1nc2ccc(C(=O)O)cc2n1C[C@@H]1CCO1)C(=O)Nc1cccc([Se]Cc2ccc(C#N)cc2F)n1` gave an EC50 [2] of over 200 µM.

Work on `COc1cc(C(F)(F)F)ccc1C[Se]c1cccc(N2C=NN(Cc3nc4c(F)cc(C(=O)O)cc4n3C[C@@H]3CCO3)CC2)n1` yielded an EC50 [3] of over 200 µM, a clearance [4] of 9.05 mL/min/kg and an MRT last at 24 h [5] of 3.21 h. It also gave a half-life [6] of 6.06 h, a bioavailability [7] of 3.2% and a Vd [8] of 4.27 L/kg. For the same compound, the Cmax [9] was 283 ng/mL, the Tmax [10] was 0.42 h and the Cmax [11] was 16500 ng/mL. It also gave an AUC(0-t) at 24 h [12] of 3720 ng·h/mL, an MRT last at 24 h [13] of 0.39 h and an AUC(0-t) at 24 h [14] of 582 ng·h/mL. The Emax [15] was 28% and the half-life [16] was 5.71 h.

For `COc1cc(C#N)ccc1C[Se]c1cccc(C2CCN(Cc3nc4ccc(C(=O)O)cc4n3C[C@@H]3CCO3)CC2)n1`, the Kd [17] was 5.53 10^-3/s, the Activity [18] was “Non-toxic” and the EC50 [3] was over 200 µM. The clearance [4] was 6.12 mL/min/kg, the Activity [19] was “Toxic” and the MRT last at 24 h [5] was 1.91 h. For the same compound, the half-life [6] was 5.13 h, the Activity [20] was “Non-toxic” and the Activity [21] was “Non-toxic”. The Activity [22] was “Non-toxic”, the bioavailability [7] was 20.4% and the fCmax [23] was 99.21 ng/mL. The Activity [24] was “Non-toxic”, the Activity [25] was “Non-toxic” and the Vd [8] was 1.18 L/kg. For the same compound, the Activity [26] was “Active”, the Activity [27] was “Non-toxic” and the Activity [28] was “Non-toxic”. The Ka [1] was 5.52 10^3/M.s, the Cmax [9] was 4960 ng/mL and the Activity [29] was “Non-toxic”. For the same compound, the Activity [30] was “Non-toxic”, the Tmax [10] was 0.5 h and the Activity [31] was “Active”. The Activity [32] was “Non-toxic”, the fraction unbound at 2 µM [33] was 0.02 and the Cmax [11] was 8110 ng/mL. For the same compound, the Kd [34] was 1 µM, the Activity [35] was “Non-toxic” and the fraction unbound at 2 µM [36] was 0.02. For the same compound, the Activity [37] was “Non-toxic”, the Activity [38] was “Active” and the AUC(0-t) at 24 h [12] was 5460 ng·h/mL. The Activity [39] was “Non-toxic”, the MRT last at 24 h [13] was 0.77 h and the Activity [40] was “Non-toxic”. For the same compound, the Activity [41] was “Non-toxic”, the Activity [42] was “Non-toxic” and the AUC(0-t) at 24 h [14] was 5540 ng·h/mL. The Emax [15] was 13%, the Activity [43] was “Non-toxic” and the half-life [16] was 2.22 h. The Activity [44] was “Non-toxic”, the Activity [45] was “Non-toxic” and the Activity [46] was “Active”. The Activity [47] was “Non-toxic”, the Activity [48] was “Non-toxic” and the Activity [49] was “Non-toxic”. For the same compound, the Activity [50] was “Non-toxic”.
